Measurements published in publication PMC6162201, “Towards a comprehensive understanding of the structural dynamics of a bacterial diterpene synthase during catalysis” (Nature Communications, 2018).

Target: T1, CotB2 (CotB2^wt) (Streptomyces melanosporofaciens, UniProt C9K1X5)
T1 construct: C-terminal His6 tag, pET-24a, expressed in E. coli Rosetta2 (DE3)
T1 sequence (C9K1X5 1-307): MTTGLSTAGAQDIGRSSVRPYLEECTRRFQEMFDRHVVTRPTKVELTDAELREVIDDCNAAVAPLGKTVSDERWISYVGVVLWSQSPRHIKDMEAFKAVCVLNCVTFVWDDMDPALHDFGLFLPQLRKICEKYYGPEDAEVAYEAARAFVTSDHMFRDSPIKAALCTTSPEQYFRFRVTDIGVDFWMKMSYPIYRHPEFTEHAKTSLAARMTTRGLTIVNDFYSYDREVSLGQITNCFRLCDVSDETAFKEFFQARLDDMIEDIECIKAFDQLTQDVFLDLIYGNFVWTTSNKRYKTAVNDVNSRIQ
Format: binding
Conditions: Mg2+ (three ions), pH 8.5; active site, diphosphate mimic, closed state

## NCCCC(O)(P(=O)(O)O)P(=O)(O)O [AHD, (4-amino-1-hydroxy-1-phosphonobutyl)phosphonate]
  X-ray crystal structure, co-crystallisation: we crystallised CotB2 with (4-amino-1-hydroxy-1-phosphonobutyl)phosphonate (alendronate (AHD)
